Measurements as given in US12193465B2, “Materials and methods for extending shelf-life of foods” (JP Laboratories, Inc., priority 2021, dated 2025).

What was measured:
fungus = test: Fungus growth on treated foods stored in closed containers at room temperature; settings: for Spoilage Time - Sample: Fungus
Text: (§1) Most of the foods changed color or texture.
Glass jars and bottles were also used. The containers were snap-closed or with a lid.
These bags were sealed with a heat sealer.
(§2) The assembly was shaken periodically.

avocado = test: Softening / rotten inside (spoiled flesh) of avocado; settings: for Spoilage Time - Sample: Softening, Avocado, control 2 days
Text: as §1, §2

For C=CCN=C=S [AI, allyl isothiocyanate], the Fungus growth (fungus; Example 12, Paneer (Indian cottage cheese), sachet) was > 10 days, the “Spoilage Time - Sample” value (fungus; Example 20, Apple juice, 0.02 g, control 7 days) was 13 days and the “Spoilage Time - Sample” value (fungus; Example 21, Beet juice, 0.02 g, control 7 days) was 13 days. For the same molecule, the “Spoilage Time - Sample” value (fungus; Example 22, Blueberries, 16 hrs P-E, control 3 days) was 24 days, the “Spoilage Time - Sample” value (fungus; Example 25, Broccoli, 0.25 hr P-E, control 6 days) was 9 days and the “Spoilage Time - Sample” value (fungus; Example 26, Broccoli, Sachet, control 6 days) was 9 days. For the same molecule, the “Spoilage Time - Sample” value (fungus; Example 27, Broccoli, 2 hrs P-E, control 5 days) was 16 days, the “Spoilage Time - Sample” value (fungus; Example 28, Carrot juice, 0.02 g, control 12 days) was 13 days and the “Spoilage Time - Sample” value (fungus; Example 30, Chickpeas, Sachet, control 7 days) was 9+ days. For the same molecule, the “Spoilage Time - Sample” value (fungus; Example 33, Fresh, raw, shelled undried peanuts, Sachet, control 18 days) was 46 days, the “Spoilage Time - Sample” value (fungus; Example 33, Fresh, raw, shelled undried peanuts, Sachet, control 18 days, listed as allyl isothiocyanate) was “significantly delayed or prevented” and the “Spoilage Time - Sample” value (fungus; Example 35, 5.3% Gelatin, 175 bloom in water, Sachet, control 9 days) was 47 days. For the same molecule, the “Spoilage Time - Sample” value (fungus; Example 37, 4% Guar Gum in water, Sachet, control 5 days) was 47 days, the “Spoilage Time - Sample” value (fungus; Example 39, Guar beans, 2 hrs P-E, control 6 days) was 17 days and the “Spoilage Time - Sample” value (fungus; Example 40, Honeydew juice, 0.02 g, control 12 days) was 30 days. For the same molecule, the “Spoilage Time - Sample” value (fungus; Example 42, Lychee, 0.5 hr P-E, control 7 days) was 11 days, the “Spoilage Time - Sample” value (fungus; Example 44, Mixed Legumes, 64 hrs P-E, 6 hrs soaking, control 11 days) was 17 days and the “Spoilage Time - Sample” value (fungus; Example 45, Monterey cheese, Sachet, control 7 days) was 10+ days. The “Spoilage Time - Sample” value (fungus; Example 45, Monterey cheese, Sachet, control 7 days, listed as allyl isothiocyanate) was > 10 days, the “Spoilage Time - Sample” value (fungus; Example 47, Pomegranate juice, 0.02 g, control 7 days) was 13 days and the “Spoilage Time - Sample” value (fungus; Example 48, Puri (Indian fried bread), 16 hrs P-E, control 5 days) was 70+ days. For the same molecule, the “Spoilage Time - Sample” value (fungus; Example 49, Raspberry, 1 hr P-E, control 5 days) was 9 days, the “Spoilage Time - Sample” value (fungus; Example 50, Raspberry, 0.33 hr P-E, control 5 days) was 31 days and the “Spoilage Time - Sample” value (fungus; Example 51, Raw milk cheddar cheese, 1 hr P-E & Sachet, control 6 days) was 35 days. For the same molecule, the “Spoilage Time - Sample” value (fungus; Example 53, Rotala (Indian millet bread), 16 hrs P-E, control 5 days) was 70+ days, the “Spoilage Time - Sample” value (fungus; Example 56, 26.7% Starch solution in water, 0.25 ml of 0.42% solution, control 5 days) was 47 days and the “Spoilage Time - Sample” value (fungus; Example 57, 26.7% Starch solution in water, Sachet, control 5 days) was 47 days. For the same molecule, the “Spoilage Time - Sample” value (fungus; Example 58, Strawberries, 5 hrs P-E, control 2 days) was 15 days, the “Spoilage Time - Sample” value (fungus; Example 59, Tindora, 2 hrs P-E, control 6 days) was 40 days and the “Spoilage Time - Sample” value (fungus; Example 60, Tofu, Sachet, control 6 days) was 9+ days. For the same molecule, the “Spoilage Time - Sample” value (fungus; Example 60, Tofu, Sachet, control 6 days, listed as allyl isothiocyanate) was > 9 days, the “Spoilage Time - Sample” value (fungus; Example 62, Unshelled peanuts, 5 ml of 0.42% solution, control 5 days) was 8 days and the “Spoilage Time - Sample” value (fungus; Example 62, Unshelled peanuts, 5 ml of 0.42% solution, control 5 days, listed as allyl isothiocyanate) was “either prevented or significantly delayed”. The “Spoilage Time - Sample” value (fungus; Example 63, Wild Rice, 5 ml of 10% allyl isothiocyanate solution in water, control 11 days) was 21 days, the “Spoilage Time - Sample” value (fungus; Example 64, Wild Rice, Sachet, control 11 days) was 21 days and the “Spoilage Time - Sample” value (fungus; Example 89, Mixed Legumes, AI & Humidity, 64 hrs P-E AI, 6 hrs soaking in water, control 11 days) was 17 days. For the same molecule, the Fungus growth (fungus; Indian millet bread, Indian wheat bread (roti), cheesecake, sachet or pre-exposure to vapors) was “either prevented or significantly delayed”, the “Effectiveness in preventing fungus” value (fungus; compared with ethyl isothiocyanate) was “more effective” and the Fungus growth (fungus; fresh cold pressed carrot, red cabbage and beet juice, Examples 28, 21, 13) was “either prevented or significantly delayed”. For the same molecule, the Fungus growth (fungus; fresh cold pressed pomegranate, blackberry, orange, red grape, apple, blueberry and honeydew juice) was “either prevented or significantly delayed”, the “Shelf-life of vegetable juices” value (fungus; fresh, cold pressed tomatillo, lime and green cabbage juices) was “improved shelf-life” and the Effectiveness on ginger (fungus; ginger, pre-exposure and sachet method) was “found effective”. For the same molecule, the Fungus growth (fungus; guar gum and starch, Examples 37, 56 & 57) was “either prevented or significantly delayed”, the “Shelf-life of raw milk yogurt” value (fungus; raw milk yogurt) was “extended shelf-life” and the Fungus growth (fungus; strawberries, raspberries, blackberries and lychee) was “either prevented or significantly delayed”. For the same molecule, the “Spoilage Time - Sample” value (avocado; Example 77, 0.25 hr P-E) was 2 days, the “Spoilage Time - Sample” value (avocado; Example 78, 2 hrs P-E) was 2 days and the “Spoiling of the flesh with development of fungus” value (avocado; avocados, Examples 77, 78, 107, 108, 113 & 171) was “significantly delayed”.
